This is an account of results in patent US7781580B2, “Stilbene derivatives as new cancer therapeutic agents” (Virginia Commonwealth University, priority 2007, dated 2010).

Data set [1] in a line: water solubility of stilbene and carbamate prodrug (salts and free base). As to conditions: for solubility: water, 20 °C, 20° C. The format is physicochemical. The procedure:
Stilbene prodrugs may be made by attaching to a stilbene derivative of interest (e.g. a stilbene derivative with anti-tumor activity), chemical groups (or moieties) that render the stilbene derivative more water soluble than before such a modification is carried out. By “water soluble” we mean that more than 20 mg compound can be fully dissolved in 1 mL of water. Further, the chemical groups that are attached to the stilbene derivative to make the derivative water soluble are labile (i.e. removable) in that, upon exposure to in vitro or in vivo hydrolyzing conditions, the chemical groups are removed or dissociated from the stilbene derivative by hydrolysis, releasing the active, anti-tumor form of the stilbene derivative. The chemical groups which are attached may themselves be biologically active, and are, at least, not biologically injurious to cells or mammals. […] As illustrated, morfolinoethyl-urea, morfolinoethyl-carbamate and triethylene glycol (TEG) groups (5a, 5b, 5c, respectively) may be used for this purpose.

Data set [2] relates to SNU423 hepatocellular carcinoma cells. The data set can be described thus: Alamar Blue cell growth inhibition, SNU423. Format: cell-based. An outline of the steps: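 Cells at 50% confluence were treated for 48 h in triplicate with 0-10 μM compound or 0.1% DMSO vehicle. Alamar Blue was added at 1/10 volume for 2 h, and absorbance at 570 and 600 nm gave % growth via the manufacturer's extinction-coefficient formula relative to vehicle controls.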
Background: Alamar Blue is a resazurin reagent that responds to reducing activity.

The subject of data set [3] is MDA-MB231 breast cancer cells. The data set can be described thus: Alamar Blue cell growth inhibition, MDA-MB231. Format: cell-based. The note with it: Homo sapiens, MDA-MB-231; MDA-MB231. The procedure:
Cell growth was measured by Alamar Blue™ staining and the percentage of cell growth inhibition was calculated and compared with control cells that were treated with 0.1% DMSO, the vehicles for the stilbene compounds.
(§1) Various cancer cell lines were grown in 96-well plates for drug sensitivity assays. Once cells achieved 50% confluence, the incubation media was changed to the same cell growth media with different concentrations of the tested compounds or vehicle alone. Cells were then incubated for 48 hours before the cell growth inhibition study. To determine the degree of cell growth inhibition, 1/10 volume of Alamar Blue™ solution was added to each well and optical density (OD) at 570 and 600 nm was determined. The percentage of growth inhibition was calculated according to the manufacturer's formula as follows: The percentage of growth is [(117216×A570)−(80586×A600)]/[(117216×A^o570)−(80586×A^o600)]×100. In this formula, A570 is the absorbance of the treated samples at 570 nm; A600 is the absorbance of the treated samples at 600 nm; A^o570 is the absorbance of the […] samples at 570 nm; and A^o600 is the absorbance of the untreated samples at 600 nm. The two constants, 117216 and 80586, are the extinction coefficients of Alamar Blue™ at 570 and 600 nm respectively. Each concentration was repeated in triplicate to minimize the error.
(§2) We first tested the cytotoxic effect of various stilbene derivatives for their in vitro efficacy of suppressing tumor cell proliferation. Cells were first plated in 96-well plates at 50% confluence and treated with 0, 0.01, 0.03, 0.1, 0.3, 1.0, 3.0, 10 μM concentrations of stilbene derivatives for 48 hours in triplicate. Alamar Blue™ reagent was added into each well at 1/10 volume and incubated for 2 hours before quantification of the absorbance at 570 and 600 nm.

The subject of data set [4] is MiaPaCa2 pancreatic cancer cells. The data set can be described thus: Alamar Blue cell growth inhibition, MiaPaCa2. Format: cell-based. As to conditions: Homo sapiens, MIA PaCa-2; MiaPaCa2. The procedure:
as §1, §2

Data set [5] concerns UCI101 ovarian cancer cells. The data set can be described thus: Alamar Blue cell growth inhibition, UCI101. The format is cell-based. The method, boiled down:
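UCI101 cells at 50% confluence treated 48 h in triplicate with compound (0–10 μM series) or 0.1% DMSO vehicle as 100% control. Alamar Blue added at 1/10 volume for 2 h; absorbance read at 570 and 600 nm, percent growth inhibition from the manufacturer's formula.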

Data set [6] concerns SKOV3 ovarian cancer cells. The data set can be described thus: Alamar Blue cell growth inhibition, SKOV3. Format: cell-based. An outline of the steps:
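SKOV3 cells at 50% confluence were treated 48 h with compounds, against 0.1% DMSO vehicle controls. Growth was read by Alamar Blue absorbance at 570 and 600 nm, with % growth inhibition from the manufacturer's extinction-coefficient formula. Each concentration was run in triplicate.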

The test system of data set [7] is UCI101 ovarian cancer cells. Put plainly: Western blot of signal transduction events, UCI101. The format is cell-based. An outline of the steps: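 UCI101 cells exposed to 0.1 μM compound for 0, 4, 8, 16 and 36 h, then harvested and analysed by Western blot. Probes covered G2-M regulators Cdc2, Cdc25c and BubR1, plus Akt phosphorylation.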
For orientation: In western blotting, separated proteins are transferred to a membrane and probed.

A short description of a further data set: animal toxicity of 13a. The note with it: 50 mg/kg.
For data set [8], the system named is UCI101 cells. The data set can be described thus: cell cycle analysis (propidium iodide, FACScan), UCI101. The format is cell-based. The procedure:
Cells were stained with propidium iodide and analyzed with FACScan. Both 5b at 3 μM and stilbene 4a at 30 nM induce a subG0/1 population that represents the dead population. At higher concentrations of either compound, nearly all cells are dead.
(a) In vitro sensitivity of UCI101 cells toward three potential stilbene prodrugs, 5a-c, was tested in 96-well plates using Alamar Blue™ assays to determine cell growth inhibition. […] (b) 5b induces cell cycle change and apoptosis in UCI101 cells. […] A subG0/1 population, representing apoptotic cells, appeared along with a decrease of the G1/G2 ratio after cells were treated with 3 μM 5b. […] (c) Cells treated with stilbene 4a and 5b were stained with phospho-histone 3B, a mitotic marker. The positive signals of phospho-histone 3B were shown in green and nuclei were stained with DAPI in blue. […] (d) In vivo efficacy of 5b compared with stilbene 4a. Nude mice were injected with UCI101 ovarian cancer cells and treated with 7 doses of 5b,c or stilbene 4a every 2-3 days. Tumor volume was calculated and plotted against days.

For the next data set, the system named is MDA-MB231 cells. Put plainly: immunofluorescent staining of tubulin, MDA-MB231. The format is cell-based. The note with it: CA4 10 nM, stilbene 4a 100 nM, vincristine 100 nM, 5b 3 μM; 16 hours. The text has this:
Nuclei were stained with 4′,6-diamidino-2-phenylindole (DAPI). Control cells show the reticular pattern of the microtubule network.

Data set [9] concerns UCI101 cells. The data set can be described thus: immunofluorescent staining of tubulin, UCI101. As to conditions: CA4 10 nM, stilbene 4a 100 nM, 5b 3 μM; 16 hours. The format is cell-based. The text has this:
Nuclei were stained with DAPI.

For data set [10], the system named is UCI101 ovarian cancer cells (xenograft). Put plainly: UCI101 xenograft in nude mice. The format is in vivo. The procedure:
(§3) (a) In vitro sensitivity of UCI101 cells toward three potential stilbene prodrugs, 5a-c, was tested in 96-well plates using Alamar Blue™ assays to determine cell growth inhibition. […] (b) 5b induces cell cycle change and apoptosis in UCI101 cells. Cells were incubated with 5b at 1, 3, 10 μM for 16 hours followed by PI staining and flow cytometry analysis. A subG0/1 population, representing apoptotic cells, appeared along with a decrease of the G1/G2 ratio after cells were treated with 3 μM 5b. Higher concentration (10 μM) of 5b completely killed cells, as was the case with stilbene 4a at […]. (c) Cells treated with stilbene 4a and 5b were stained with phospho-histone 3B, a mitotic marker. The positive signals of phospho-histone 3B were shown in green and nuclei were stained with DAPI in blue. […] (d) In vivo efficacy of 5b compared with stilbene 4a. Nude mice were injected with UCI101 ovarian cancer cells and treated with 7 doses of 5b,c or stilbene 4a every 2-3 days. Tumor volume was calculated and plotted against days.
We next tested whether 5b could be converted into stilbene 4a in circulation. […] Blood was collected at 20, 60 and 240 min after injection for spot check of stilbene 4a level in serum. […] The in vivo efficacy of 5b and 5c was compared to stilbene 4a in a pilot study using 5 mice in each group.

The nature of data set [11]: preliminary toxicity and serum conversion of 5b. Format: in vivo, mice. The text has this: We next tested whether 5b could be converted into stilbene 4a in circulation. […] The in vivo efficacy of 5b and 5c was compared to stilbene 4a in a pilot study using 5 mice in each group.
Data set [12] concerns UCI101 cells. Put plainly: phospho-histone 3B mitotic marker staining. Format: cell-based. The procedure:
as §3
The in vitro efficacy of these three compounds was tested in UCI101 cells in 96-well plate format and stained with Alamar blue™, The growth suppression was calculated as was done similarly to other test compounds. […] A dose response was then performed with various concentrations of 5b in vitro. […]

Where a name gives a salt, the structure may show the parent alone. Read-outs that look alike come from different tables or passages of the source.

As for `COc1cc(/C=C\c2ccc3c(ccn3C)c2)cc(OC)c1` [13a, (Z)-5-[2-(3,5-Dimethoxy-phenyl)-vinyl]-1-methyl-1H-indole], in data set [1], the “water solubility (in words)” value is “poor water solubility”. Besides, the IC50 is 10 nM in [2] (Homo sapiens, SNU-423, 48 h, read-out: IC50 (50% growth inhibition), SNU423, 48 hours); 10 nM in data set [3]; 10 nM in data set [4]; 50 to 100 nM in data set [6] (Homo sapiens, SK-OV-3, SKOV, read-out: IC50). In addition, the “effective concentration, blocking cell proliferation” value in data set [2] (SNU423, 48 hours) turned out to be 0.03 µM. Moreover, the “relative potency / activity” value in data set [5] (UCI101, 48 hours) is “about equal in their potency”. In addition, the “effective / active concentration” value in [6] (SKOV3, 48 hours) is 0.1 µM. For the same compound, in [7] (0.1 μM), the “phosphorylation of Stat3” value is “more pronounced”. Besides, in data set [7] (36 hours), the “phosphorylation of Chk1” value is “do not cause more phosphorylation of Chk1”. Besides, in the data set “animal toxicity of 13a”, the neurotoxicity result was “transient neurotoxicity was observed”.
Turning to `COc1cc(/C=C\c2ccc(OC)c(NC(=O)OCCN3CCOCC3)c2)cc(OC)c1` [5b, (Z)-{5-[2-(3,5-Dimethoxy-phenyl)-vinyl]-2-methoxy-phenyl}-carbamic acid 2-morpholin-4-yl-ethyl ester, oxalate salt], in [1], the “water solubility (in words)” value is on record as “high solubility”. The solubility in data set [1] (HCl salt, read-out: water solubility, x HCl) was 759000 µg/mL; in data set [1] (free base, read-out: water solubility, Free base) it was under 1000 µg/mL; in data set [1] (oxalate salt, read-out: water solubility, x (COOH)2), 5900 µg/mL. Also, the “fold less potent than stilbene 4a” value in [5] (UCI101, from IC50) is “about 100”. Also, the IC50 in [5] (UCI101, estimated) is about 3000 nM. Further, in the data set on UCI101 cells [8] (1 μM), the “cell death / cell cycle arrest at 1 μM” value is listed as “not effective in inducing cell death or cell cycle arrest”. In addition, the “cell death / cell cycle arrest at 3 μM” value in the data set on UCI101 cells [8] (3 μM) was “showed a significant activity”. In addition, the “cell death / cell cycle arrest at 10 μM” value with UCI101 cells [8] (10 μM) was “nearly all cells have committed to cell death”. In the data set with UCI101 cells [8] (10 μM 5b equivalent to 100 nM stilbene 4a), the “fold less potent than stilbene 4a in vitro” value is recorded as 100. Further, in the data set with UCI101 cells [8] (4a at 30, 100 nM, 5b at 1, 3, 10 μM), the “cell cycle effect” value was “induced similar cell cycle arrest as stilbene 4a”. Moreover, in the data set with UCI101 cells [8] (24 hours), the “concentration inducing a subG0/1 (dead) population” value came to 3 µM. Moreover, the microtubule pattern entry in the data set on MDA-MB231 cells is listed as “completely disrupted microtubule formation”; with UCI101 cells [9] it was “partial disruption of microtubules”. In data set [10] (7 doses every 2-3 days), the “tumor growth versus control mice” value was “only compound that achieved statistical significance compared with control mice”. Besides, in data set [10] (7 doses every 2-3 days, 5 mice in each group), the tumor growth suppression result was “about 40%”. Further, in [10] (mouse, in vivo), the mouse weight result is reported as “did not show any significant change”. In addition, the tolerability entry in data set [11] (100 mg/kg by intraperitoneal injection) was “tolerated well without complication”. In addition, the persistence in circulation entry in data set [11] (100 mg/kg ip) was “stay in circulation longer than stilbene 4a”. Moreover, in the data set on UCI101 cells [12], the “phospho-histone 3B positive cells” value was “dramatic increase in positive cells”.

One may read the IC50 as the concentration that inhibits the measured activity by half. In general, solubility refers to the concentration that dissolves in the medium under given conditions.
